pIC50: −log10 of the molar value.
Columns and labels:
Type in all cases: cell-based
IRAK4 [1] = target: T1, IRAK4 (Homo sapiens, UniProt Q9NWZ3); assay: IRAK4 Degradation Assay (Karpas299, HTRF/TR-FRET)
T1 construct: endogenous in cells; host or cells: Karpas299
T1 sequence (Q9NWZ3 1-460): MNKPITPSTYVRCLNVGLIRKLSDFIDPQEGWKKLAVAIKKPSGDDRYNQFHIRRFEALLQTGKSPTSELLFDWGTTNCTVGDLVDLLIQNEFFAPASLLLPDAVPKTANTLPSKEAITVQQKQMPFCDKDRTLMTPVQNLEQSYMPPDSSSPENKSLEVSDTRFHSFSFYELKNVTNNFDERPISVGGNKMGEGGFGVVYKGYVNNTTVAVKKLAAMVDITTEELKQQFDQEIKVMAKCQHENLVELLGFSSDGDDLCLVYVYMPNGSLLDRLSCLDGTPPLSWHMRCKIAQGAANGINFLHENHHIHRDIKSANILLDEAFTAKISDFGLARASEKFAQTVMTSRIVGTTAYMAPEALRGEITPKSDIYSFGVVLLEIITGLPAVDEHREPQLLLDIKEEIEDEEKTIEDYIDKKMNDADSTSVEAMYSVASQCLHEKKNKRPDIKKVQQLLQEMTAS
Method in brief: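 Karpas299 cells at 0.2 million per well were exposed to serially diluted compounds for 24 h or 5 h, then lysed. IRAK4 remaining in lysates was quantified by HTRF (665/620 nm) after overnight antibody incubation at room temperature. Percent degradation was fitted to a four-parameter curve to give IC50 (DC50).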

IRAK4 [2] = target: T1, IRAK4; assay: IRAK4 Degradation Assay with Human Serum (Karpas299, HTRF/TR-FRET); conditions: Karpas-299 in human serum, 24 hrs treatment; for DC50: read-out: IRAK4 degradtion with human serum assay DC50; for Dmax: read-out: IRAK4 degradtion with human serum assay Dmax (%)
Method in brief: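 Karpas299 cells in human AB serum (0.2 million/well) treated with serial compound dilutions for 24 h. After lysis, IRAK4 quantified by HTRF (overnight antibody incubation at room temperature, 665/620 nm read). Degradation percentage fitted to four-parameter curve to give DC50.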

[3] = test system: TNF-α production in THP-1 cells; assay: TNF-α Production Assay in THP-1 Cells (LPS stimulated); conditions: Homo sapiens, THP-1, 24 h; for Emax: maximum inhibition, read-out: TNF-α (THP-1) 24 h IMax
Method in brief: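 Cells (0.2 million/well) pretreated with compounds for 24 h, then stimulated with LPS at 1 μg/mL final for 24 h. TNF-α in culture supernatant quantified by TR-FRET immunoassay.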

[4] = test system: IL-6 production in human PBMC; assay: IL-6 Production Assay in Human PBMC (LPS stimulated); conditions: Homo sapiens, 5 h; for Emax: maximum inhibition, read-out: IL-6 (PBMC) 5 h IMax
Description: Frozen human PBMC (AllCells) were thawed in RPMI 1640 medium (Thermo Scientific) supplemented with 10% heat-inactivated FBS (Thermo Scientific) and recovered at 37° C. overnight. The next day, PBMC were seeded into 96-well plates at the density of 0.2 million cells per well and treated with compounds for 24 h. Then lipopolysaccharide was added at the final concentration of 10 ng/mL for 5 h. Culture supernatant was collected for subsequent measurement of IL-6 concentration by a TR-FRET-based method (Degorce, François, et al. Current chemical genomics. 2009, 3: 22) as described by the manufacturer manual (Cisbio). FRET signals were measured with PHERAstar FSX reader (BMG Labtech).

[5] = Karpas-299 cells, 24 h treatment, maximum percentage of degradation, read-out: IRAK4 in Karpas-299 (24 h) Dmax (%)
[6] = Karpas-299 cells, 24 h treatment, read-out: IRAK4 in Karpas-299 (24 h) DC50
[7] = Karpas-299 cells, 5 h treatment, maximum percentage of degradation, read-out: IRAK4 in Karpas-299 (5 h) Dmax (%)
[8] = Karpas-299 cells, 5 h treatment, read-out: IRAK4 in Karpas-299 (5 h) DC50

COC[C@H]1CN(CCc2cc(F)c([C@H]3CCC(=O)NC3=O)c(F)c2)CCN1[C@H]1CC[C@H](n2cc3cc(NC(=O)c4ccc5cc(C#N)cnn45)c(C(C)(C)O)cc3n2)CC1 [Example 321, 3-cyano-N-(2-((1R,4r)-4-((R)-4-(4-((R)-2,6-dioxopiperidin-3-yl)-3,5-difluorophenethyl)-2-(methoxymethyl)piperazin-1-yl)cyclohexyl)-6-(2-hydroxypropan-2-yl)-2H-indazol-5-yl)pyrrolo[1,2-b]pyridazine-7-carboxamide]
Dmax (IRAK4 [1]; [5]): 96% | DC50 (IRAK4 [1]; [6]): 1.4 nM | DC50 (IRAK4 [2]): 5.5 nM | Dmax (IRAK4 [2]): 98% | pIC50 [3]: 7.26 | Emax [3]: 77% | pIC50 [4]: 9.40 | Emax [4]: 58%

NC(=O)c1nn([C@H]2CC[C@H](N3CCN(C(=O)[C@@H]4CCN(c5cc(F)c([C@H]6CCC(=O)NC6=O)c(F)c5)C4)CC3)CC2)cc1NC(=O)c1coc(-c2ccnc(NCC(F)(F)F)c2)n1 [Example 12, N-(3-carbamoyl-1-((1R,4r)-4-(4-((R)-1-(4-((R)-2,6-dioxopiperidin-3-yl)-3,5-difluorophenyl)pyrrolidine-3-carbonyl)piperazin-1-yl)cyclohexyl)-1H-pyrazol-4-yl)-2-(2-((2,2,2-trifluoroethyl)amino)pyridin-4-yl)oxazole-4-carboxamide]
Dmax (IRAK4 [1]; [7]): 97% | DC50 (IRAK4 [1]; [8]): 5.4 nM | Dmax (IRAK4 [1]; [5]): 98% | DC50 (IRAK4 [1]; [6]): 1.8 nM | pIC50 [3]: 7.60 | Emax [3]: 90% | pIC50 [4]: 8.34 | Emax [4]: 91%

COC[C@H]1CN([C@H]2CC[C@H](n3cc4cc(NC(=O)c5ccc6cc(C#N)cnn56)c(C(C)(C)O)cc4n3)CC2)CCN1C1CCN(c2cc(F)c([C@H]3CCC(=O)NC3=O)c(F)c2)CC1 [Example 317, 3-cyano-N-(2-((1R,4r)-4-((R)-4-(1-(4-((R)-2,6-dioxopiperidin-3-yl)-3,5-difluorophenyl)piperidin-4-yl)-3-(methoxymethyl)piperazin-1-yl)cyclohexyl)-6-(2-hydroxypropan-2-yl)-2H-indazol-5-yl)pyrrolo[1,2-b]pyridazine-7-carboxamide]
Dmax (IRAK4 [1]; [7]): 95% | DC50 (IRAK4 [1]; [8]): 1.9 nM | Dmax (IRAK4 [1]; [5]): 96% | DC50 (IRAK4 [1]; [6]): 0.8 nM | DC50 (IRAK4 [2]): 25 nM | Dmax (IRAK4 [2]): 100% | pIC50 [3]: 7.39 | Emax [3]: 87% | pIC50 [4]: 9.00 | Emax [4]: 71%

CC(C)(O)c1cc2nn([C@H]3CC[C@H](N4CCN(C5CN(c6cc(F)c([C@H]7CCC(=O)NC7=O)c(F)c6)C5)CC4)CC3)cc2cc1NC(=O)c1ccc2cc(C#N)cnn12 [Example 110, 3-cyano-N-(2-((1R,4r)-4-(4-(1-(4-((R)-2,6-dioxopiperidin-3-yl)-3,5-difluorophenyl)azetidin-3-yl)piperazin-1-yl)cyclohexyl)-6-(2-hydroxypropan-2-yl)-2H-indazol-5-yl)pyrrolo[1,2-b]pyridazine-7-carboxamide]
Dmax (IRAK4 [1]; [7]): 94% | DC50 (IRAK4 [1]; [8]): 1.1 nM | Dmax (IRAK4 [1]; [5]): 98% | DC50 (IRAK4 [1]; [6]): 0.8 nM | DC50 (IRAK4 [2]): 8.3 nM | Dmax (IRAK4 [2]): 100% | pIC50 [3]: 7.57 | Emax [3]: 83% | pIC50 [4]: 8.82 | Emax [4]: 63%

CC(C)(O)c1cc2nn(C34CCC(N5CCN(CCc6cc(F)c([C@H]7CCC(=O)NC7=O)c(F)c6)CC5)(CC3)CC4)cc2cc1NC(=O)c1ccc2cc(C#N)cnn12 [Example 151, (R)-3-cyano-N-(2-(4-(4-(4-(2,6-dioxopiperidin-3-yl)-3,5-difluorophenethyl)piperazin-1-yl)bicyclo[2.2.2]octan-1-yl)-6-(2-hydroxypropan-2-yl)-2H-indazol-5-yl)pyrrolo[1,2-b]pyridazine-7-carboxamide]
Dmax (IRAK4 [1]; [5]): 99% | DC50 (IRAK4 [1]; [6]): 0.9 nM | DC50 (IRAK4 [2]): 3.9 nM | Dmax (IRAK4 [2]): 101% | pIC50 [3]: 7.57 | Emax [3]: 84% | pIC50 [4]: 8.13 | Emax [4]: 53%

CC(C)(O)c1cc2nn([C@H]3CC[C@H](N4CCN(CCc5cc(F)c([C@H]6CCC(=O)NC6=O)c(F)c5)CC4)CC3)cc2cc1NC(=O)c1ccc2cc(C#N)cnn12 [Example 182, 3-cyano-N-(2-((1R,4r)-4-(4-(4-((R)-2,6-dioxopiperidin-3-yl)-3,5-difluorophenethyl)piperazin-1-yl)cyclohexyl)-6-(2-hydroxypropan-2-yl)-2H-indazol-5-yl)pyrrolo[1,2-b]pyridazine-7-carboxamide]
Dmax (IRAK4 [1]; [7]): 96% | DC50 (IRAK4 [1]; [8]): 2.3 nM | Dmax (IRAK4 [1]; [5]): 98% | DC50 (IRAK4 [1]; [6]): 0.3 nM | DC50 (IRAK4 [2]): 3.7 nM | Dmax (IRAK4 [2]): 99% | pIC50 [3]: 7.48 | Emax [3]: 71% | pIC50 [4]: 8.60 | Emax [4]: 64%

COc1cc2nn([C@H]3CC[C@H](N4CCN(C(=O)C5CN(c6ccc(N7CCC(=O)NC7=O)cc6)C5)CC4)CC3)cc2cc1NC(=O)c1cccc(C(F)(F)F)n1 [Example 37, N-(2-((1r,4r)-4-(4-(1-(4-(2,4-dioxotetrahydropyrimidin-1(2H)-yl)phenyl)azetidine-3-carbonyl)piperazin-1-yl)cyclohexyl)-6-methoxy-2H-indazol-5-yl)-6-(trifluoromethyl)picolinamide]
DC50 (IRAK4 [1]; Degradation (Karpas-299), comparison table, Linker Type B, read-out: Compound (Linker Type B) DC50): 0.7 nM | Dmax (IRAK4 [1]; Degradation (Karpas-299), comparison table, Linker Type B, read-out: Compound (Linker Type B) Dmax (%)): 96% | Dmax (IRAK4 [1]; [7]): 93% | DC50 (IRAK4 [1]; [8]): 9.1 nM | Dmax (IRAK4 [1]; [5]): 96% | DC50 (IRAK4 [1]; [6]): 0.7 nM | pIC50 [3]: 7.47 | Emax [3]: 82% | pIC50 [4]: 7.96 | Emax [4]: 90%

O=C1CC[C@H](c2c(F)cc(N3CC[C@@H](C(=O)N4CCN([C@H]5CC[C@H](n6cc(NC(=O)c7coc(-c8ccnc(NCC(F)(F)F)c8)n7)c(C(F)F)n6)CC5)CC4)C3)cc2F)C(=O)N1 [Example 17, N-(3-(difluoromethyl)-1-((1R,4r)-4-(4-((R)-1-(4-((R)-2,6-dioxopiperidin-3-yl)-3,5-difluorophenyl)pyrrolidine-3-carbonyl)piperazin-1-yl)cyclohexyl)-1H-pyrazol-4-yl)-2-(2-((2,2,2-trifluoroethyl)amino)pyridin-4-yl)oxazole-4-carboxamide]
Dmax (IRAK4 [1]; [7]): 96% | DC50 (IRAK4 [1]; [8]): 8.8 nM | Dmax (IRAK4 [1]; [5]): 97% | DC50 (IRAK4 [1]; [6]): 2.2 nM | pIC50 [3]: 7.47 | Emax [3]: 87% | pIC50 [4]: 8.17 | Emax [4]: 93%

CC(C)(O)c1cc2nn(C3CCN(C4CCN(C(=O)[C@@H]5CCN(c6cc(F)c([C@H]7CCC(=O)NC7=O)c(F)c6)C5)CC4)CC3)cc2cc1NC(=O)c1cccc(C(F)(F)F)n1 [Example 161, N-(2-(1′-((R)-1-(4-((R)-2,6-dioxopiperidin-3-yl)-3,5-difluorophenyl)pyrrolidine-3-carbonyl)-[1,4′-bipiperidin]-4-yl)-6-(2-hydroxypropan-2-yl)-2H-indazol-5-yl)-6-(trifluoromethyl)picolinamide]
Dmax (IRAK4 [1]; [7]): 91% | DC50 (IRAK4 [1]; [8]): 5 nM | Dmax (IRAK4 [1]; [5]): 97% | DC50 (IRAK4 [1]; [6]): 0.3 nM | pIC50 [3]: 7.42 | Emax [3]: 85% | pIC50 [4]: 8.31 | Emax [4]: 90%

CC(C)(O)c1cc2nn([C@H]3CC[C@H](N4CCN(C(=O)C5CN(c6cc(F)c([C@H]7CCC(=O)NC7=O)c(F)c6)C5)CC4)CC3)cc2cc1NC(=O)c1cccc(C(F)(F)F)n1 [Example 38, N-(2-((1r,4r)-4-(4-(1-(4-((R)-2,6-dioxopiperidin-3-yl)-3,5-difluorophenyl)azetidine-3-carbonyl)piperazin-1-yl)cyclohexyl)-6-(2-hydroxypropan-2-yl)-2H-indazol-5-yl)-6-(trifluoromethyl)picolinamide]
Dmax (IRAK4 [1]; [7]): 95% | DC50 (IRAK4 [1]; [8]): 2.3 nM | Dmax (IRAK4 [1]; [5]): 99% | DC50 (IRAK4 [1]; [6]): 0.4 nM | pIC50 [3]: 7.72 | Emax [3]: 87% | pIC50 [4]: 8.68 | Emax [4]: 91%
